Test results from patent publication US20240115597A1, “METHOD FOR TREATING AND/OR PREVENTING HEARING LOSS BY USING TOLL-LIKE RECEPTOR 7 AND/OR 9 ANTAGONIST” (Kaohsiung Chang Gung Memorial Hospital, priority 2022, published 2024).
“Also recorded” adds a separate entry of the source.

How the values were obtained:
CBA/CaJ mice [1] = assay: Noise-induced auditory brainstem response (ABR) threshold shift; assay type: in vivo; settings: 3 weeks after 106-dB noise exposure, chloroquine 50 mg/kg intraperitoneal, ODN 2088 5 mg/kg subcutaneous, four treatments
Procedure: (§1) The animal models used in this example and the following examples are as follows. Male CBA/CaJ mice at 4-6 weeks of age were purchased from National Laboratory Animal Center in Taiwan. The mice accessed to water and a regular mouse diet, and were kept at 22±1° C. under a standard 12h:12h light-dark cycle to acclimate for one week before the experiments. The lights were on from 5:00 to 17:00).
(§2) The experimental procedure of noise exposure is as follows. Three awake CBA/CaJ mice in the same group were placed in a sound chamber, with one mouse per stainless steel cage. The sound chamber was fitted with a loudspeaker, driven by an amplifier connected to a CD player. Broadband noise (BBN) with a frequency of 2 to 20 kHz was compiled onto a CD and equalized with software. […]
(§3) The experimental procedure of auditory brainstem response (ABR) is as follows. […] Body temperature was monitored and maintained near 37° C. with a heating pad. […] ABRs were measured at 8, 16, and 32 kHz. […] Thresholds were determined for each frequency by reducing the intensity in 10 dB increments and then in 5 dB steps near the threshold until no organized responses were detected. […] ABR thresholds were detected at before noise exposure and one week/three week after noise exposure. […]

CBA/CaJ mice [2] = assay: Noise-induced reduction of ABR wave I amplitude; assay type: in vivo; settings: 16 kHz; 106-dB noise; chloroquine 50 mg/kg intraperitoneal, ODN 2088 5 mg/kg subcutaneous
Procedure: as §1
The experimental procedure of noise exposure is as follows. Three awake CBA/CaJ mice in the same group were placed in a sound chamber, with one mouse per stainless steel cage. The sound chamber was fitted with a loudspeaker, driven by an amplifier connected to a CD player. […]
as §3
To test if TLR7/9 antagonists could protect the auditory nerve against acoustic trauma, we measured the ABR wave I amplitudes at 16 kHz, which is one of the most sensitive frequencies of the auditory spectrum in the mice.

outer hair cell (OHC) = assay: Outer hair cell (OHC) counts in cochlear surface preparations after 106-dB noise; assay type: in vivo, mice; settings: basal segment, chloroquine 50 mg/kg intraperitoneal
Procedure: as §1, §2
To examine if TLR7/9 antagonist could protect the OHC from acoustic trauma, we counted the OHCs in surface preparations after 106-dB noise exposure. […]
The experimental procedure of immunocytochemistry for outer hair cell (OHC) counts is as follows. […] Cell populations in the phalloidin-stained stereociliary bundles and circumferential F-actin rings around the cuticular plate of the OHCs were evaluated using an epifluorescence microscope. […] Each successive 0.25 mm field was evaluated beginning from the apex to the base for counting the number of OHCs. […]

[3] = system: cochlear cytokines and chemokines; assay: Quantitative real-time RT-PCR of cochlear cytokine and chemokine gene expression after noise; assay type: in vivo, mice; settings: one day after systemic (intraperitoneal) chloroquine treatment; noise exposure; normalized to Actb
Procedure: as §1, §2
To test if TLR7/9 antagonist could affect the expression of cochlear cytokines and chemokines after noise, we used quantitative real-time reverse transcription polymerase chain reaction (quantitative real-time RT-PCR) to analyze gene expression in the cochlea one day after systemic chloroquine treatment.
The experimental procedure of RNA isolation and quantitative real-time RT-PCR is as follows. […] Real-time quantitative PCR was performed in an ABI 7500 Fast Real-Time System (Applied Biosystems). […]

NF-κB = NF-κB immunostaining of the cochlea after noise; assay type: in vivo, mice; settings: lateral wall, middle-basal segment; 106-dB noise
Procedure: as §1
(§4) The experimental procedure of noise exposure is as follows. Three awake CBA/CaJ mice in the same group were placed in a sound chamber, with one mouse per stainless steel cage. The sound chamber was fitted with a loudspeaker, driven by an amplifier connected to a CD player. Broadband noise (BBN) with a frequency of 2 to 20 kHz was compiled onto a CD and equalized with software. Sound levels were calibrated with a sound level meter (type 2250; Brtiel & Kja✓r) fitted with a microphone (type 4189; Brtiel & Kja✓r, Na✓rum, Denmark) at the locations of each cage within the sound chamber, before and after exposure to the noise. The control (sham) group was put in the same cage without exposure to noise for 2 hours. An intensity of 106 dB broadband noise was used to produce permanent threshold shifts.
(§5) Chloroquine was dissolved in saline. ODN 2088 was dissolved in endotoxin-free water. The control group was endotoxin-free water. […]

Iba-1±cells = assay: Iba-1± cell (macrophage) infiltration into the cochlea after noise; assay type: in vivo, mice
Procedure: as §1, §4, §5

Q: For `CCN(CC)CCCC(C)Nc1ccnc2cc(Cl)ccc12` (stereo not drawn) [chloroquine], which “noise-induced ABR threshold shift” value (CBA/CaJ mice [1]) is on record?
A: Its value is “attenuate 106-dB noise-induced auditory threshold shifts”.

Q: And the “noise-induced ABR threshold shift” value (CBA/CaJ mice [1]; listed as Chloroquine)?
A: The value was “decreased the noise-induced ABR thresholds shift”.

Q: What about the “noise-induced decrease in ABR wave I amplitude” value (CBA/CaJ mice [2]) of the same compound?
A: Its value is “attenuate 106-dB noise-induced wave I amplitude reduction at 16 kHz; also recorded: attenuated the noise-induced decrease in the amplitudes”.

Q: And the “percentage of OHC loss” value (outer hair cell (OHC))?
A: Its value is “decreases noise-induced outer hair cell (OHC) loss; also recorded: attenuated the percentage of OHC loss over this area”.

Q: What about the “mRNA expression of Tlr9, MyD88, Il-1β, Tnf-α and Irf-7 in the cochlea” value [3] of the same compound?
A: The value was “decreases noise-induced elevation of cochlear cytokines and chemokines expression; also recorded: attenuated these changes”.

Q: What about the “noise-induced elevation of Ccl2, Ccl4 and Ccl12 expression in the cochlea” value [3] of the same compound?
A: The value was “decreases noise-induced elevation of cochlear cytokines and chemokines expression; also recorded: decreased the noise-induced elevation”.

Q: What about the “immunostaining of NF-κB in the cochlea” value (NF-κB) of the same compound?
A: Its value is “attenuates noise-induced nuclear factor kappa-B (NF-κB) immunostaining of the cochlea; also recorded: decreased the immunostaining of NF-κB”.

Q: What about the “number of Iba-1±signals, quantification of immunofluorescence” value (Iba-1±cells; each segment of the cochlea) of the same compound?
A: Its value is “reduces the number of Iba-1macrophage infiltration in the cochlea; also recorded: decreases the number of Iba-1signals in each segment of the cochlea”.

Q: And the “Iba-1±cell infiltration, immunohistochemistry” value (Iba-1±cells; lower spiral ligament of the cochlea)?
A: The value was “attenuates noise-induced infiltration of Iba-1macrophages; also recorded: attenuates the increase in Iba-1cell infiltration”.
